Results on 27 molecules are retold here after patent publication US9409914B2, “Triazolo[4,5-d]pyrimidine derivatives” (Merck Patent GmbH, priority 2012, dated 2016).

pIC50: −log10 of the molar value.

Test [1] has as its target T1, GCN2 (Homo sapiens, UniProt Q9P2K8). Description: Cellular assay for GCN2 activity (phospho-eIF2alpha immunocytochemistry, tryptophanol-stimulated U2OS cells). As to conditions: 2 hours compound, then 600 μM tryptophanol 30 minutes, anti-phospho-eIF2alpha, read-out: IC50 GCN2 (cell assay). Further details: endogenous in cells; host or cells: U2OS. The class given is cell-based. The protocol: Cellular Assay for the Determination of Compound Activities
Human U2OS cells (2000 cells/well) are seeded into 384-well plates and incubated for 20 hours.
The next day, the cells are treated with the test compounds and incubated for 2 hours. Then, tryptophanol, at a final concentration of 600 μM, is added to the cells and those are incubated for 30 minutes.
The analysis of cellular GCN2 activities is done by immunocytochemistry. Briefly, cells are fixated on the well surfaces by formaldehyde and permeabilised with Triton X-100. The primary antibody (anti-phospho-eIF2alpha (Ser51, Cell Signalling Technology, #3398) is incubated on the treated cells for 20 hours, followed by a 60 minutes incubation of the secondary antibody (anti-rabbit-IgG-Alexa 488; Molecular Probes #11008). The analysis and quantification of phosphorylated GCN2 is done by scanning the plates in the Acumen Explorer system (TTPLabtech). The obtained data are normalised against the untreated control wells (DMSO only) and expressed as % effect values. The determination of IC50 values is done by using the Graph Pad Prism software.
Target sequence in this assay (Q9P2K8 whole entry): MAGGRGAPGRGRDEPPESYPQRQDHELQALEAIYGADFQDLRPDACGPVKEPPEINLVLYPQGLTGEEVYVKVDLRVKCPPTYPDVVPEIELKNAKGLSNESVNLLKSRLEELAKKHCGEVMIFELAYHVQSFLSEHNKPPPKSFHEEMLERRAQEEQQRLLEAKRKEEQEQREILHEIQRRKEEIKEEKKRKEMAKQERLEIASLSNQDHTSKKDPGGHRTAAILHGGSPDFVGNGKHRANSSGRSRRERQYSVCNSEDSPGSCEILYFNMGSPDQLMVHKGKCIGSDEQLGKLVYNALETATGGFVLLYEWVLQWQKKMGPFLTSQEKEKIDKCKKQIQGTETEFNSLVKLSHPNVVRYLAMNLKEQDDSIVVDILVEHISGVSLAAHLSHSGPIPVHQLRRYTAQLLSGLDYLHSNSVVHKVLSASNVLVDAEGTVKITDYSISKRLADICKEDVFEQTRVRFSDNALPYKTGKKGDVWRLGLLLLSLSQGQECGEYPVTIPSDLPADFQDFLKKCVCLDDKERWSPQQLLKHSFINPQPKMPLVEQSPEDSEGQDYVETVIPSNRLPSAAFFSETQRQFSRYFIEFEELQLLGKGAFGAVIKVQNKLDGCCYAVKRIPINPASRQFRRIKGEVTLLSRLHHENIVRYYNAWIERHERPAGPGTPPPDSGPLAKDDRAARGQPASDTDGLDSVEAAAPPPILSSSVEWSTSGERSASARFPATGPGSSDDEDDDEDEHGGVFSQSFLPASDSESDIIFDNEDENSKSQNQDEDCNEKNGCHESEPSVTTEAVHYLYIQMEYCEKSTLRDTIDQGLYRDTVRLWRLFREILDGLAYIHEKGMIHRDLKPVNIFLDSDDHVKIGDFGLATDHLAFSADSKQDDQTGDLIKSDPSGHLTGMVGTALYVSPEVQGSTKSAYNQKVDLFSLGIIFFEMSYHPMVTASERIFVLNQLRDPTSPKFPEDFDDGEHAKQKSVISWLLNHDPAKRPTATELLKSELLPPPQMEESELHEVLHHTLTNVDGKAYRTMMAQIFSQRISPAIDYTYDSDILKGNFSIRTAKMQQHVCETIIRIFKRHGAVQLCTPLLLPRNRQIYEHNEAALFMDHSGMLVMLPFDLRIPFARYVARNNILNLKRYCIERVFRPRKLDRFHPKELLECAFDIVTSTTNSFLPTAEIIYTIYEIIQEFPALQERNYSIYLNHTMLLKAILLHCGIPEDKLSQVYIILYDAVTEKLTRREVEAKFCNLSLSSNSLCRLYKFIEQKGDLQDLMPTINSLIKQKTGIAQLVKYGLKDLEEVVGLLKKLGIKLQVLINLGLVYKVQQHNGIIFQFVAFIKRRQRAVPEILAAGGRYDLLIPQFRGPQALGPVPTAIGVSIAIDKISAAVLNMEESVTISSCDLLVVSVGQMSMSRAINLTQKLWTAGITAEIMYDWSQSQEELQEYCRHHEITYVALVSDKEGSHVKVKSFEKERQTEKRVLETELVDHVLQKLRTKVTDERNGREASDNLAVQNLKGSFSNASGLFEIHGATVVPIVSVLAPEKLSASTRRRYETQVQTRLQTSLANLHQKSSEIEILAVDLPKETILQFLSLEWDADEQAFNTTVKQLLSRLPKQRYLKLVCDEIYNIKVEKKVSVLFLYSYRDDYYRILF

Test [2] deals with T1, GCN2. Description: GCN2 enzyme assay (TR-FRET Lanthascreen, phosphorylation of GFP-eIF2alpha). It is filed as biochemical. As to conditions: 10 μM ATP, 80 nM GFP-eIF2alpha, 30 nM GCN2, room temperature. In outline:
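Two-step TR-FRET (Lanthascreen) format: GCN2 incubated at room temperature with 10 μM ATP and 80 nM GFP-labelled eIF2alpha, then stopped with EDTA. Phospho-eIF2alpha detected by Tb-labelled antibody, excitation 340 nm; activity taken from the 520/495 nm emission ratio.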
Target sequence in this assay (Q9P2K8 whole entry, species assumed): as the sequence (Q9P2K8 whole entry) above
A general note: Time-resolved FRET reads energy transfer from a long-lived donor to a nearby acceptor.

Usually pIC50 stands for the IC50 on a negative log10 scale, so that one unit is a factor of ten. Consider `COCCOc1ccc(-n2nnc3cnc(Nc4cnn(C5CCN(C)CC5)c4)nc32)cc1` [Compound A27, 3-[4-(2-methoxyethoxy)phenyl]-N-[1-(1-methyl-4-piperidyl)pyrazol-4-yl]triazolo[4,5-d]pyrimidin-5-amine], for which the pIC50 on GCN2 [1] is 5.52 to 6.52; at GCN2 [2] it was greater than 6.52.

For the molecule `CN1CCC(n2cc(Nc3ncc4nnn(-c5ccc6nccnc6c5)c4n3)cn2)CC1` [Compound A101, [1-(1-methyl-piperidin-4-yl)-1H-pyrazol-4-yl]-(3-quinoxalin-6-yl-3H-[1,2,3]triazolo[4,5-d]pyrimidin-5-yl)-amine], the pIC50 was 4.30 to 5.52 at GCN2 [1] and greater than 6.52 against GCN2 [2].

On to `O[C@H]1CC[C@H](n2cc(Nc3ncc4nnn(-c5ccc(Cl)c(F)c5)c4n3)cn2)CC1` [Compound A103, 4-{4-[3-(4-chloro-3-fluoro-phenyl)-3H-[1,2,3]triazolo[4,5-d]pyrimidin-5-ylamino]-pyrazol-1-yl}-cyclohexanol], for which the negative-log IC50 (pIC50) at GCN2 [1] and against GCN2 [2] was greater than 6.52 throughout.

For `COc1ccc(-n2nnc3cnc(Nc4cnn(C5COC5)c4)nc32)cc1` [Compound A23, 3-(4-methoxyphenyl)-N-[1-(oxetan-3-yl)pyrazol-4-yl]triazolo[4,5-d]pyrimidin-5-amine], the pIC50 on GCN2 [1] was 5.52 to 6.52; against GCN2 [2], greater than 6.52.

Take `COc1ccc(-n2nnc3cnc(Nc4cn[nH]c4)nc32)cc1` [Compound A3, [3-(4-methoxy-phenyl)-3H-[1,2,3]triazolo[4,5-d]pyrimidin-5-yl]-(1H-pyrazol-4-yl)-amine]: the pIC50 on GCN2 [1] was 4.30 to 5.52; on GCN2 [2], greater than 6.52.

In the case of `CCn1cc(Nc2ncc3nnn(-c4ccc5ncccc5c4)c3n2)cn1` [Compound A71, (1-ethyl-1H-pyrazol-4-yl)-(3-quinolin-6-yl-3H-[1,2,3]triazolo[4,5-d]pyrimidin-5-yl)-amine], the results for the pIC50 at GCN2 [1] and against GCN2 [2] were 5.52 to 6.52 and greater than 6.52, respectively.

For the molecule `CCn1cc(Nc2ncc3nnn(-c4ccc5c(c4)NC(=O)C5(C)C)c3n2)cn1` [Compound A84, 6-[5-(1-ethyl-1H-pyrazol-4-ylamino)-[1,2,3]triazolo[4,5-d]pyrimidin-3-yl]-3,3-dimethyl-1,3-dihydro-indol-2-one], the pIC50 at GCN2 [1] is 5.52 to 6.52; against GCN2 [2], greater than 6.52.

Take `CN1CCC(n2cc(Nc3ncc4nnn(-c5ccc(C(N)=O)cc5)c4n3)cn2)CC1` [Compound A69, 4-{5-[1-(1-methyl-piperidin-4-yl)-1H-pyrazol-4-ylamino]-[1,2,3]triazolo[4,5-d]pyrimidin-3-yl}-benzamide]: the values for the pIC50 at GCN2 [1] and at GCN2 [2] were 5.52 to 6.52 and greater than 6.52, respectively.

`COCCOc1ccc(-n2nnc3cnc(Nc4cnn(C5CCN(C(C)=O)C5)c4)nc32)cc1` (stereo not drawn) [Compound A99, 1-[3-(4-{3-[4-(2-methoxy-ethoxy)-phenyl]-3H-[1,2,3]triazolo[4,5-d]pyrimidin-5-ylamino}-pyrazol-1-yl)-pyrrolidin-1-yl]-ethanone]: the figures for the pIC50 on GCN2 [1] and against GCN2 [2] were 4.30 to 5.52 and greater than 6.52, respectively.

On to `COc1cc(-n2nnc3cnc(Nc4cnn(C5CCN(C)CC5)c4)nc32)ccn1` [Compound A30, 3-(2-methoxy-4-pyridyl)-N-[1-(1-methyl-4-piperidyl)pyrazol-4-yl]triazolo[4,5-d]pyrimidin-5-amine], for which the figures for the pIC50 on GCN2 [1] and against GCN2 [2] were 5.52 to 6.52 and greater than 6.52, respectively.

Take `Fc1cccc(-n2nnc3cnc(Nc4cnn(C5CCOCC5)c4)nc32)c1` [Compound A122, [3-(3-fluoro-phenyl)-3H-[1,2,3]triazolo[4,5-d]pyrimidin-5-yl]-[1-(tetrahydro-pyran-4-yl)-1H-pyrazol-4-yl]-amine]: the pIC50 is 5.52 to 6.52 at GCN2 [1] and greater than 6.52 at GCN2 [2].

Regarding `CN1CCC(n2cc(Nc3ncc4nnn(-c5ccccc5)c4n3)cn2)CC1` [Compound A11, [1-(1-methyl-piperidin-4-yl)-1H-pyrazol-4-yl]-(3-phenyl-3H-[1,2,3]triazolo[4,5-d]pyrimidin-5-yl)-amine], the negative-log IC50 (pIC50) on GCN2 [1] and against GCN2 [2] was 5.52 to 6.52 throughout.

For `COc1ccc(-n2nnc3cnc(Nc4cnn(-c5ccccc5)c4)nc32)cc1` [Compound A1, [3-(4-methoxy-phenyl)-3H-[1,2,3]triazolo[4,5-d]pyrimidin-5-yl]-(1-phenyl-1H-pyrazol-4-yl)-amine], the figures for the pIC50 at GCN2 [1] and against GCN2 [2] were 4.30 to 5.52 and 5.52 to 6.52, respectively.

For the molecule `COc1ccc(-n2nnc3cnc(Nc4cnn(CCn5cccn5)c4)nc32)nc1` [Compound A124, [3-(5-methoxy-pyridin-2-yl)-3H-[1,2,3]triazolo[4,5-d]pyrimidin-5-yl]-[1-(2-pyrazol-1-yl-ethyl)-1H-pyrazol-4-yl]-amine], the pIC50 at GCN2 [1] is 4.30 to 5.52; on GCN2 [2], greater than 6.52.

`COCCN1CCC(n2cc(Nc3ncc4nnn(-c5ccnc(OC)c5)c4n3)cn2)CC1` [Compound A76, {1-[1-(2-methoxy-ethyl)-piperidin-4-yl]-1H-pyrazol-4-yl}-[3-(2-methoxy-pyridin-4-yl)-3H-[1,2,3]triazolo[4,5-d]pyrimidin-5-yl]-amine]: the pIC50 was 4.30 to 5.52 on GCN2 [1] and greater than 6.52 on GCN2 [2].

Regarding `CC(C)(O)c1ccc(-n2nnc3cnc(Nc4cnn(C5CCOCC5)c4)nc32)cc1` [Compound A119, 2-(4-{5-[1-(tetrahydro-pyran-4-yl)-1H-pyrazol-4-ylamino]-[1,2,3]triazolo[4,5-d]pyrimidin-3-yl}-phenyl)-propan-2-ol], the pIC50 is 5.52 to 6.52 at GCN2 [1] and greater than 6.52 against GCN2 [2].

Turning to `COCCOc1ccc(-n2nnc3cnc(Nc4cnn(C5CCNC5)c4)nc32)cc1` (stereo not drawn) [Compound A96, {3-[4-(2-methoxy-ethoxy)-phenyl]-3H-[1,2,3]triazolo[4,5-d]pyrimidin-5-yl}-(1-pyrrolidin-3-yl-1H-pyrazol-4-yl)-amine], the negative-log IC50 (pIC50) on GCN2 [1] is 5.52 to 6.52; against GCN2 [2] it was greater than 6.52.

For `COCCOc1ccc(-n2nnc3cnc(Nc4cnn([C@H]5CC[C@@H](O)CC5)c4)nc32)cc1` [Compound A107, 4-(4-{3-[4-(2-methoxy-ethoxy)-phenyl]-3H-[1,2,3]triazolo[4,5-d]pyrimidin-5-ylamino}-pyrazol-1-yl)-cyclohexanol], the pIC50 was 5.52 to 6.52 on GCN2 [1] and greater than 6.52 on GCN2 [2].

Regarding `CN1CCC(n2cc(Nc3ncc4nnn(-c5ccc6[nH]ncc6c5)c4n3)cn2)CC1` [Compound A93, [3-(1H-indazol-5-yl)-3H-[1,2,3]triazolo[4,5-d]pyrimidin-5-yl]-[1-(1-methyl-piperidin-4-yl)-1H-pyrazol-4-yl]-amine], the pIC50 was 4.30 to 5.52 on GCN2 [1] and greater than 6.52 at GCN2 [2].

Regarding `COCCOc1ccc(-n2nnc3cnc(Nc4cnn(C)c4)nc32)cc1` [Compound A56, {3-[4-(2-methoxy-ethoxy)-phenyl]-3H-[1,2,3]triazolo[4,5-d]pyrimidin-5-yl}-(1-methyl-1H-pyrazol-4-yl)-amine], the negative-log IC50 (pIC50) on GCN2 [1] is 5.52 to 6.52; against GCN2 [2] it was greater than 6.52.

For `CN1CCC(n2cc(Nc3ncc4nnn(-c5ccc(F)c(F)c5)c4n3)cn2)CC1` [Compound A120, [3-(3,4-difluoro-phenyl)-3H-[1,2,3]triazolo[4,5-d]pyrimidin-5-yl]-[1-(1-methyl-piperidin-4-yl)-1H-pyrazol-4-yl]-amine], the figures for the pIC50 at GCN2 [1] and on GCN2 [2] were 4.30 to 5.52 and 5.52 to 6.52, respectively.

As for `CN1CCC(n2cc(Nc3ncc4nnn(-c5cccc(C(N)=O)c5)c4n3)cn2)CC1` [Compound A67, 3-{5-[1-(1-methyl-piperidin-4-yl)-1H-pyrazol-4-ylamino]-[1,2,3]triazolo[4,5-d]pyrimidin-3-yl}-benzamide], the pIC50 on GCN2 [1] was 4.30 to 5.52; against GCN2 [2] it was greater than 6.52.

`COCCN1CCC(n2cc(Nc3ncc4nnn(-c5ccc(OC)cc5)c4n3)cn2)CC1` [Compound A26, N-[1-[1-(2-methoxyethyl)-4-piperidyl]pyrazol-4-yl]-3-(4-methoxyphenyl)triazolo[4,5-d]pyrimidin-5-amine]: the negative-log IC50 (pIC50) on GCN2 [1] is 5.52 to 6.52; against GCN2 [2], greater than 6.52.

For `CN1CCC(n2cc(Nc3ncc4nnn(-c5ccc(N6CCCC6=O)cc5)c4n3)cn2)CC1` [Compound A48, 1-(4-{5-[1-(1-methyl-piperidin-4-yl)-1H-pyrazol-4-ylamino]-[1,2,3]triazolo[4,5-d]pyrimidin-3-yl}-phenyl)-pyrrolidin-2-one], the negative logarithm of the IC50 (pIC50) at GCN2 [1] was 5.52 to 6.52; against GCN2 [2], greater than 6.52.

With `COc1ccc(-n2nnc3cnc(Nc4cnn(C5CCNCC5)c4)nc32)cc1` [Compound A6, [3-(4-methoxy-phenyl)-3H-[1,2,3]triazolo[4,5-d]pyrimidin-5-yl]-(1-piperidin-4-yl-1H-pyrazol-4-yl)-amine], the pIC50 is 5.52 to 6.52 at GCN2 [1] and greater than 6.52 against GCN2 [2].

Regarding `CCn1cc(Nc2ncc3nnn(-c4ccc(C(C)(C)OCCO)cc4)c3n2)cn1` [Compound A127, 2-(1-{4-[5-(1-ethyl-1H-pyrazol-4-ylamino)-[1,2,3]triazolo[4,5-d]pyrimidin-3-yl]-phenyl}-1-methyl-ethoxy)-ethanol], the pIC50 at GCN2 [1] was 5.52 to 6.52; against GCN2 [2], greater than 6.52.

With `CN1CCC(n2cc(Nc3ncc4nnn(-c5ccc6cccnc6c5)c4n3)cn2)CC1` [Compound A73, [1-(1-methyl-piperidin-4-yl)-1H-pyrazol-4-yl]-(3-quinolin-7-yl-3H-[1,2,3]triazolo[4,5-d]pyrimidin-5-yl)-amine], the pIC50 on GCN2 [1] was 4.30 to 5.52; against GCN2 [2], greater than 6.52.
